The results in this text go back to patent US10130633B2, “Compounds” (BAYER PHARMA AKTIENGESELLSCHAFT, priority 2013, dated 2018).

Experiment [1] relates to HCT116 FOP control reporter cell line. Briefly: HCT116 FOPFlash control reporter assay (FOP control vector, non-functional TCF elements). The following applies: HCT116 FOP control reporter cells, 36 hours incubation, luciferase expression. The experiment is classed as cell-based. The source says: In a parallel approach, HCT116 cells were cotransfected with the FOP control vector and pcDNA3. The FOP vector is identical to the TOP construct, but it contains instead of functional TCF elements a randomized, non-functional sequence. For this transfection a stable transfected cell line was generated as well.

For experiment [2], the system named is HEK293 FOP control reporter cell line. Briefly: HEK293 FOP control reporter assay. Format: cell-based, human. To be noted: read-out: HEK FOP IC50. The method, then:
(§1) Measurement of luciferase expression was done as described for the constitutive active Wnt assay.
In a parallel approach, HEK293 cells were cotransfected with the FOP control vector and pcDNA3. The FOP vector is identical to the TOP construct, but it contains instead of functional TCF elements a randomized, non-functional sequence. For this transfection a stable transfected cell line was generated as well, based on selection with Geneticin (1 mg/ml).

Experiment [3] relates to constitutive active colorectal cancer cell (CRC) Wnt pathway. The experiment is described as follows: HCT116 TOPFlash cellular reporter assay (Super TopFlash luciferase), constitutive active Wnt pathway. The experiment is classed as cell-based. To be noted: HCT116 TOP reporter cells, 36 hours incubation, luciferase expression. The method, then: In order to discover and characterize small molecules which inhibit the constitutive active colorectal cancer cell (CRC) Wnt pathway, a cellular reporter assay was employed. […] Stable transfectants were generated by cotransfection with pcDNA3 and selection of stable transfected cells with 1 mg/ml G418.

Another experiment relates to wildtype Wnt pathway. The experiment is described as follows: HEK293 TOP reporter assay, wildtype Wnt pathway stimulated with Wnt-3a. The experiment is classed as cell-based, human. Here is the method:
as §1
In order to discover and characterize small molecules which inhibit the wildtype Wnt pathway, a cellular reporter assay was employed. […] Stable transfectants were generated by selection with 300 μg/ml Hygromycin.

Where [4] appears, read: Homo sapiens, HEK293, 16 h; read-out: HEK TOP OncoFlash IC50.
[5] abbreviates: Homo sapiens, HEK293, 16 h, read-out: HEK TOP OncoFlash IC50.

Structures can show the parent of a compound that is named as a salt. Where two headings read alike, the source gives them in different places.

On to `C[C@H](C(=O)Nc1cc(C(=O)Nc2ccc(-c3ccc(N(C)C)cc3)nc2)ccc1OC(F)(F)F)N1CCOCC1` (single isomer, unassigned) [Example 115, N-{6-[4-(dimethylamino)phenyl]pyridin-3-yl}-3-{[(2S)-2-(morpholin-4-yl)propanoyl]amino}-4-(trifluoromethoxy)benzamide or N-{6-[4-(dimethylamino)phenyl]pyridin-3-yl}-3-{[(2R)-2-(morpholin-4-yl)propanoyl]amino}-4-(trifluoromethoxy)benzamide], for which the IC50 was 2200 nM in experiment [1]; 4700 nM in experiment [2] (HEK293 FOP control cells, EC50 concentration of recombinant Wnt-3a, 16 hours); 8.8 nM in experiment [3]; 52 nM in the experiment with wildtype Wnt pathway (HEK293 TOP cells, EC50 concentration of recombinant Wnt-3a, 16 hours; read-out: HEK TOP OncoFlash IC50).
As to `COc1ccc(C(=O)Nc2ccc(-c3ccccc3F)nc2)cc1NC(=O)CN1CCOCC1` [Example 1, N-[6-(2-fluorophenyl)pyridin-3-yl]-4-methoxy-3-[(morpholin-4-ylacetyl)amino]benzamide], the IC50 is ≥ 50000 nM in experiment [1] (Homo sapiens, HCT-116, 36 h); ≥ 50000 nM in experiment [2] (Homo sapiens, HEK293, 16 h); 1140 nM in experiment [3] (Homo sapiens, HCT-116, 36 h); 3300 nM with wildtype Wnt pathway (setting [4]).
As to `O=C(CN1CCOCC1)Nc1cc(C(=O)Nc2ccc(-c3ccccc3)nc2)ccc1OC(F)(F)F` [Example 15, 3-[(morpholin-4-ylacetyl)amino]-N-(6-phenylpyridin-3-yl)-4-(trifluoromethoxy)benzamide], the half-inhibitory concentration (IC50) in experiment [1] (Homo sapiens, HCT-116, 36 h) is ≥ 50000 nM; in experiment [2] (Homo sapiens, HEK293, 16 h), ≥ 50000 nM; in experiment [3] (Homo sapiens, HCT-116, 36 h), 137 nM; in the experiment on wildtype Wnt pathway (setting [4]) it was 48 nM.
As to `O=C(CN1CCOCC1)Nc1cc(NC(=O)c2ncc(-c3ccccc3)s2)ccc1OC(F)(F)F` [Example 16, N-{3-[(morpholin-4-ylacetyl)amino]-4-(trifluoromethoxy)phenyl}-5-phenyl-1,3-thiazole-2-carboxamide], the IC50 in experiment [1] (Homo sapiens, HCT-116, 36 h) is ≥ 50000 nM; in experiment [2] (Homo sapiens, HEK293, 16 h), ≥ 50000 nM; in experiment [3] (Homo sapiens, HCT-116, 36 h), 17.8 nM; in the experiment on wildtype Wnt pathway (setting [4]) it was 92 nM.
As for `O=C(CN1CCOCC1)Nc1cc(NC(=O)c2ccc(-c3ccccc3)s2)ccc1OC(F)(F)F` [Example 17, N-{3-[(morpholin-4-ylacetyl)amino]-4-(trifluoromethoxy)phenyl}-5-phenylthiophene-2-carboxamide], the IC50 in experiment [1] (Homo sapiens, HCT-116, 36 h) was ≥ 50000 nM; in experiment [2] (Homo sapiens, HEK293, 16 h), ≥ 50000 nM; in experiment [3] (Homo sapiens, HCT-116, 36 h), 43 nM; in the experiment with wildtype Wnt pathway (setting [4]) it was 33 nM.
As to `CC(C)(C)c1ccc(NC(=O)c2ccc(-c3ccccc3)s2)cc1NC(=O)CN1CCOCC1` [Example 19, N-{4-tert-butyl-3-[(morpholin-4-ylacetyl)amino]phenyl}-5-phenylthiophene-2-carboxamide], the IC50 was 11000 nM in experiment [1] (Homo sapiens, HCT-116, 36 h); ≥ 50000 nM in experiment [2] (Homo sapiens, HEK293, 16 h); 26.2 nM in experiment [3] (Homo sapiens, HCT-116, 36 h); 990 nM in the experiment with wildtype Wnt pathway (setting [4]).
In the same order, the values of `COc1ccc(NC(=O)c2ccc(-c3ccccc3)s2)cc1NC(=O)CN1CCOCC1` [Example 25, N-{4-methoxy-3-[(morpholin-4-ylacetyl)amino]phenyl}-5-phenylthiophene-2-carboxamide] are ≥ 50000 nM, 10000 nM, 326 nM and 90 nM.
For the compound `O=C(CN1CCOCC1)Nc1cc(NC(=O)c2ccc(-c3ccccc3F)nc2)ccc1OC(F)(F)F` [Example 30, 6-(2-fluorophenyl)-N-{3-[(morpholin-4-ylacetyl)amino]-4-(trifluoromethoxy)phenyl}nicotinamide], the IC50 in experiment [1] (Homo sapiens, HCT-116, 36 h) was ≥ 50000 nM; in experiment [2] (Homo sapiens, HEK293, 16 h) it was ≥ 50000 nM; in experiment [3] (Homo sapiens, HCT-116, 36 h) it was 90.1 nM; in the experiment with wildtype Wnt pathway (setting [4]) it was 1400 nM.
`O=C(CN1CCOCC1)Nc1cc(NC(=O)c2ccc(-c3ccccc3)nc2)ccc1OC(F)(F)F` [Example 33, N-{3-[(morpholin-4-ylacetyl)amino]-4-(trifluoromethoxy)phenyl}-6-phenylnicotinamide]: the IC50 is ≥ 50000 nM in experiment [1] (Homo sapiens, HCT-116, 36 h); 7400 nM in experiment [2] (Homo sapiens, HEK293, 16 h); 111 nM in experiment [3] (Homo sapiens, HCT-116, 36 h); 370 nM in the experiment on wildtype Wnt pathway (setting [4]).
In the same order, the values of `CN1CCN(CC(=O)Nc2cc(C(=O)Nc3nnc(-c4ccccc4)s3)ccc2OC(F)F)CC1` [Example 40, 4-(difluoromethoxy)-3-{[(4-methylpiperazin-1-yl)acetyl]amino}-N-(5-phenyl-1,3,4-thiadiazol-2-yl)benzamide] are ≥ 50000 nM, ≥ 50000 nM, 52.4 nM and 530 nM.
Regarding `CC(C(=O)Nc1cc(C(=O)Nc2nnc(-c3ccccc3)s2)ccc1OC(F)F)N1CCN(C)CC1` (centres unmarked) [Example 42, 4-(difluoromethoxy)-3-{[2-(4-methylpiperazin-1-yl)propanoyl]amino}-N-(5-phenyl-1,3,4-thiadiazol-2-yl)benzamide trifluoroacetate (1:1)], the IC50 in experiment [1] (Homo sapiens, HCT-116, 36 h) is ≥ 50000 nM; in experiment [2] (Homo sapiens, HEK293, 16 h), ≥ 50000 nM; in experiment [3] (Homo sapiens, HCT-116, 36 h), 242 nM; with wildtype Wnt pathway (setting [5]), 106 nM.
Take `COCc1ccc(C(=O)Nc2nnc(-c3ccccc3)s2)cc1NC(=O)C1(N2CCOCC2)CC1` [Example 43, 4-(methoxymethyl)-3-({[1-(morpholin-4-yl)cyclopropyl]carbonyl}amino)-N-(5-phenyl-1,3,4-thiadiazol-2-yl)benzamide]: the IC50 in experiment [1] (Homo sapiens, HCT-116, 36 h) is ≥ 50000 nM; in experiment [2] (Homo sapiens, HEK293, 16 h), ≥ 50000 nM; in experiment [3] (Homo sapiens, HCT-116, 36 h), 49.1 nM; with wildtype Wnt pathway (setting [4]), 110 nM.
In the case of `COCc1ccc(C(=O)Nc2nnc(-c3ccccc3)s2)cc1NC(=O)C1(N2CCN(C)CC2)CC1` [Example 45, 4-(methoxymethyl)-3-({[1-(4-methylpiperazin-1-yl)cyclopropyl]carbonyl}amino)-N-(5-phenyl-1,3,4-thiadiazol-2-yl)benzamide hydrochloride (1:1)], the IC50 in experiment [1] (Homo sapiens, HCT-116, 36 h) is 26500 nM; in experiment [2] (Homo sapiens, HEK293, 16 h), ≥ 50000 nM; in experiment [3] (Homo sapiens, HCT-116, 36 h), 198 nM; in the experiment on wildtype Wnt pathway (setting [5]) it was 190 nM.
For `COCc1ccc(C(=O)Nc2nnc(-c3ccccc3)s2)cc1NC(=O)CN1CCN(C)CC1` [Example 46, 4-(methoxymethyl)-3-{[(4-methylpiperazin-1-yl)acetyl]amino}-N-(5-phenyl-1,3,4-thiadiazol-2-yl)benzamide], the IC50 in experiment [1] (Homo sapiens, HCT-116, 36 h) is ≥ 50000 nM; in experiment [2] (Homo sapiens, HEK293, 16 h), ≥ 50000 nM; in experiment [3] (Homo sapiens, HCT-116, 36 h), 164 nM; with wildtype Wnt pathway (setting [4]), 690 nM.
With `CS(=O)(=O)Cc1ccc(C(=O)Nc2nnc(-c3ccccc3)s2)cc1NC(=O)C1(N2CCOCC2)CC1` [Example 47, 4-[(methylsulfonyl)methyl]-3-({[1-(morpholin-4-yl)cyclopropyl]carbonyl}amino)-N-(5-phenyl-1,3,4-thiadiazol-2-yl)benzamide], the IC50 is ≥ 50000 nM in experiment [1] (Homo sapiens, HCT-116, 36 h); ≥ 50000 nM in experiment [2] (Homo sapiens, HEK293, 16 h); 39.8 nM in experiment [3] (Homo sapiens, HCT-116, 36 h); 90 nM in the experiment on wildtype Wnt pathway (setting [4]).
With `CS(=O)(=O)Cc1ccc(C(=O)Nc2nnc(-c3ccccc3)s2)cc1NC(=O)C1(N2CCN(C3CC3)CC2)CC1` [Example 48, 3-({[1-(4-cyclopropylpiperazin-1-yl)cyclopropyl]carbonyl}amino)-4-[(methylsulfonyl)methyl]-N-(5-phenyl-1,3,4-thiadiazol-2-yl)benzamide], the IC50 was ≥ 50000 nM in experiment [1] (Homo sapiens, HCT-116, 36 h); ≥ 50000 nM in experiment [2] (Homo sapiens, HEK293, 16 h); 73.7 nM in experiment [3] (Homo sapiens, HCT-116, 36 h); 130 nM with wildtype Wnt pathway (setting [4]).
In the case of `CN1CCN(CC(=O)Nc2cc(C(=O)Nc3nnc(-c4ccccc4)s3)ccc2OC(F)(F)F)CC1` [Example 54, 3-{[(4-methylpiperazin-1-yl)acetyl]amino}-N-(5-phenyl-1,3,4-thiadiazol-2-yl)-4-(trifluoromethoxy)benzamide], the IC50 is 28000 nM in experiment [1] (Homo sapiens, HCT-116, 36 h); ≥ 50000 nM in experiment [2] (Homo sapiens, HEK293, 16 h); 104 nM in experiment [3] (Homo sapiens, HCT-116, 36 h); 130 nM in the experiment with wildtype Wnt pathway (setting [4]).
In the same order, the values of `NC(=O)c1ccc(C(=O)Nc2nnc(-c3ccccc3)s2)cc1NC(=O)C1(N2CCOCC2)CC1` [Example 56, 2-({[1-(morpholin-4-yl)cyclopropyl]carbonyl}amino)-N-4-(5-phenyl-1,3,4-thiadiazol-2-yl)terephthalamide] are ≥ 50000 nM, ≥ 50000 nM, 104 nM and 190 nM.
In the same order, the values of `COc1ccc(NC(=O)c2ccc(-c3ccccc3F)nc2)cc1NC(=O)C1(N2CCOCC2)CC1` [Example 62, 6-(2-fluorophenyl)-N-[4-methoxy-3-({[1-(morpholin-4-yl)cyclopropyl]carbonyl}amino)phenyl]nicotinamide] are ≥ 50000 nM, ≥ 50000 nM, 67.3 nM and 180 nM.
In the same order, the values of `COc1ccc(C(=O)Nc2ccc(-c3ccccc3F)nc2)cc1NC(=O)C1(N2CCOCC2)CC1` [Example 80, N-[6-(2-fluorophenyl)pyridin-3-yl]-4-methoxy-3-({[1-(morpholin-4-yl)cyclopropyl]carbonyl}amino)benzamide] are ≥ 50000 nM, 10000 nM, 27 nM and 150 nM.
